Here are results for eight molecules from patent publication US20250163047A1, “HETEROCYCLIC COMPOUNDS, COMPOSITIONS THEREOF, AND METHODS OF TREATMENT THEREWITH” (BeiGene, Ltd., priority 2022, published 2025).

One experiment deals with T1, Cbl (aa49-434) (Homo sapiens, UniProt P22681).
T1 construct: Cbl (aa49-434, in-house); made in house
T1 sequence (P22681 49-434): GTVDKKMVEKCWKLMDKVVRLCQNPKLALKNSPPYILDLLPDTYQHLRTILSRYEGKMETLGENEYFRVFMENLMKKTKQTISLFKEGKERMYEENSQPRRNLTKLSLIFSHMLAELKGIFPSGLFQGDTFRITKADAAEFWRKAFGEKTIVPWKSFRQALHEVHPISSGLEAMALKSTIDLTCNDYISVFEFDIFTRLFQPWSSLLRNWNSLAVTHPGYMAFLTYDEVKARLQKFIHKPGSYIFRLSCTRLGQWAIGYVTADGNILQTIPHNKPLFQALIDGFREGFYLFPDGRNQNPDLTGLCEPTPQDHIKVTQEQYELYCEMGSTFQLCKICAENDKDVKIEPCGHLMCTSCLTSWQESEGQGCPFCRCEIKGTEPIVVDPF
Kind of experiment: Co-expressed Cbl with BirA biochemical assay (CBL/E2-Ub binding, HTRF). The conditions noted are these: 0.6 nM Cbl co-expressed with BirA, read-out: co-express CBL/E2-Ub-binding assay IC50. An excerpt:
(§1) The assay in the absence of a Cbl-b/Cbl inhibitor, where phosphorylation of Cbl-b/Cbl by the Src kinase allows UbcH5B-Ub to bind to Cbl-b/Cbl and brings the Bodipy-Fluorescein tagged ubiquitin in proximity to the streptavidin-terbium bound to the N-terminal biotinylated Avi-tagged Cbl-b/Cbl. […] The lack of a FRET signal indicates Cbl-b/Cbl is inhibited by the Cbl-b/Cbl inhibitor.
(Time-resolved FRET reads energy transfer from a long-lived donor to a nearby acceptor.)

In a further experiment the target is T2, Cbl-b (aa36-427) (Homo sapiens, UniProt Q13191).
T2 construct: Cbl-b (aa36-427, in-house); made in house
T2 sequence (Q13191 36-427): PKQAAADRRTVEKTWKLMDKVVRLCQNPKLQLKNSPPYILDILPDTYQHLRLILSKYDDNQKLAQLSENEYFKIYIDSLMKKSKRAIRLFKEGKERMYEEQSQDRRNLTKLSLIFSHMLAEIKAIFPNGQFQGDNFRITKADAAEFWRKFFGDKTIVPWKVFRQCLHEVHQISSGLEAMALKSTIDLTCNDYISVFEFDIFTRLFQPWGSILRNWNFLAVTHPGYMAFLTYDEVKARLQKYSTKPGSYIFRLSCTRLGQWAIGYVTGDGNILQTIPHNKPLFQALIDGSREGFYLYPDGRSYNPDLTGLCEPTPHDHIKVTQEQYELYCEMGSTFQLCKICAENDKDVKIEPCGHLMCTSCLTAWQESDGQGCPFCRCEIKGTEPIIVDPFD
Put plainly: Co-expressed Cbl-b with BirA biochemical assay (CBLB/E2-Ub binding, HTRF). The following applies: 0.6 nM Cbl-b co-expressed with BirA, HTRF; read-out: co-express CBLB/E2-Ub-binding assay IC50.
Excerpt: as §1

pIC50: −log10 of the molar value.

With `Cc1cnc2c(C(=O)Nc3cncc([C@]4(c5nncn5C)C[C@@H](C)C4)c3)cc(CN3CC[C@H](F)[C@H](C)C3)cn12` [Compound A55, 6-{[(3R,4S)-4-fluoro-3-methylpiperidin-1-yl]methyl}-3-methyl-N-{5-[(1r, 3s)-3-methyl-1-(4-methyl-1,2,4-triazol-3-yl)cyclobutyl]pyridin-3-yl}imidazo[1,2-a]pyridine-8-carboxamide], the figures for the pIC50 on Cbl (aa49-434) and on Cbl-b (aa36-427) were 8.17 and 8.54, respectively.
For the molecule `C[C@H](NCc1cc(C(=O)Nc2cccc([C@]3(c4nncn4C)C[C@@H](CC#N)C3)c2)nc2c1CCC2(F)F)C1CC1` [Compound C43, N-(3-((1s,3R)-3-(cyanomethyl)-1-(4-methyl-4H-1,2,4-triazol-3-yl)cyclobutyl)phenyl)-4-((((S)-1-cyclopropylethyl)amino)methyl)-7,7-difluoro-6,7-dihydro-5H-cyclopenta[b]pyridine-2-carboxamide], the pIC50 at Cbl (aa49-434) was 8.00; at Cbl-b (aa36-427), 8.89.
Taken in the same sequence, the figures for `Cn1ccc2nc(C(=O)Nc3cccc([C@]4(c5nncn5C)C[C@@H](CC#N)C4)c3)cc(CNC3(C)CCC3)c21` [Compound B56, N-(3-((1s, 3s)-3-(cyanomethyl)-1-(4-methyl-4H-1,2,4-triazol-3-yl)cyclobutyl)phenyl)-1-methyl-7-(((1-methylcyclobutyl)amino)methyl)-1H-pyrrolo[3,2-b]pyridine-5-carboxamide] were 7.49 and 8.85.
In the case of `Cn1cnnc1[C@]1(c2cccc(NC(=O)c3cc(CNCC4(C)CCCC4)cn4ccnc34)c2)C[C@H](CC#N)C1` [Compound A15, N-(3-((1s, 3s)-3-(cyanomethyl)-1-(4-methyl-4H-1,2,4-triazol-3-yl)cyclobutyl)phenyl)-6-((((1-methylcyclopentyl)methyl)amino)methyl)imidazo[1,2-a]pyridine-8-carboxamide], the figures for the pIC50 on Cbl (aa49-434) and on Cbl-b (aa36-427) were 8.40 and 9.05, respectively.
Regarding `Cc1cnc2c(C(=O)Nc3cccc([C@]4(c5nncn5C)C[C@@H](C)C4)c3)cc(CN[C@@H](C)C3CC3)cn12` [Compound A59, 6-((((S)-1-cyclopropylethyl)amino)methyl)-3-methyl-N-(3-((1s,3R)-3-methyl-1-(4-methyl-4H-1,2,4-triazol-3-yl)cyclobutyl)phenyl)imidazo[1,2-a]pyridine-8-carboxamide], the pIC50 at Cbl (aa49-434) was 8.28; at Cbl-b (aa36-427), 8.77.
On to `Cn1cnnc1[C@]1(c2cccc(NC(=O)c3cc(CNC4(C)CCC4)c4ccsc4n3)c2)C[C@H](CC#N)C1` [Compound B39, 4-{[(1-methylcyclobutyl)amino]methyl}-N-{3-[(1s, 3s)-3-(cyanomethyl)-1-(4-methyl-1,2,4-triazol-3-yl)cyclobutyl]phenyl}thieno[2,3-b]pyridine-6-carboxamide], for which the values for the pIC50 on Cbl (aa49-434) and at Cbl-b (aa36-427) were 8.06 and 9.10, respectively.
In the case of `Cn1cnnc1[C@]1(c2cncc(NC(=O)c3cc(CNC4(C)CC4)c4[nH]ccc4n3)c2)C[C@H](C)C1` [Compound B44, N-(5-((1s, 3s)-3-methyl-1-(4-methyl-4H-1,2,4-triazol-3-yl)cyclobutyl)pyridin-3-yl)-7-(((1-methylcyclopropyl)amino)methyl)-1H-pyrrolo[3,2-b]pyridine-5-carboxamide], the pIC50 at Cbl (aa49-434) was 8.05; on Cbl-b (aa36-427) it was 8.72.
Turning to `Cn1cnnc1[C@]1(c2cccc(NC(=O)c3cc(CNC4(C)CCC4)cn4c(Cl)cnc34)c2)C[C@H](C)C1` [Compound A66, 3-chloro-N-(3-((1s, 3s)-3-methyl-1-(4-methyl-4H-1,2,4-triazol-3-yl)cyclobutyl)phenyl)-6-(((1-methylcyclobutyl)amino)methyl)imidazo[1,2-a]pyridine-8-carboxamide], the results for the pIC50 on Cbl (aa49-434) and on Cbl-b (aa36-427) were 8.47 and 8.96, respectively.
